Tests used:
[1] = system: B16; test: Antitumor activity against mouse B16 cells transplanted in ICR mouse assessed as tumor growth inhibition at 30 mg/kg, ip administered 7 days post tumor transplantation; type: functional; details: 168 h, route intraperitoneal
[2] = system: Mus musculus; test: Toxicity in […] H22 cells transplanted ICR mouse assessed as mouse body weight at 30 mg/kg, ip administered 7 days post tumor transplantation (reference value: 18.4 to 18.9g); type: organism-based; parameters: dose 30 mg/kg, route intraperitoneal; details: in vivo, 168 h
[3] = system: Mus musculus; test: Toxicity in mouse […] cells transplanted ICR mouse assessed as mouse body weight at 30 mg/kg, iv administered 7 days post tumor transplantation (reference value: 18.3 to 18.6g); type: organism-based; parameters: dose 30 mg/kg, route intravenous; details: in vivo, 168 h
[4] = system: HeLa; test: Antiproliferative activity against human HeLa cells after 72 hrs MTT assay; type: functional, cell-based
[5] = system: H22; test: Antitumor activity against […] H22 cells transplanted in ICR mouse assessed as tumor growth inhibition at 30 mg/kg, ip administered 7 days post tumor transplantation; type: functional; details: 168 h, route intraperitoneal
[6] = system: Mus musculus; test: Toxicity in mouse […] cells transplanted ICR mouse assessed as mouse survival at 30 mg/kg, ip administered 7 days post tumor transplantation; type: organism-based; parameters: dose 30 mg/kg, route intraperitoneal; details: in vivo, 168 h
[7] = Antiproliferative activity against human SF763 cells after 72 hrs MTT assay; type: functional, cell-based; details: SF763, 72 h
[8] = system: B16; test: Antiproliferative activity against mouse B16 cells after 72 hrs MTT assay; type: functional, cell-based; details: B16, 72 h
[9] = Antiproliferative activity against human HL60 cells after 72 hrs MTT assay; type: functional, cell-based; details: HL-60, 72 h
[10] = system: Mus musculus; test: Toxicity in […] H22 cells transplanted ICR mouse assessed as mouse survival at 30 mg/kg, ip administered 7 days post tumor transplantation; type: organism-based; parameters: dose 30 mg/kg, route intraperitoneal; details: in vivo, 168 h
[11] = Antiproliferative activity against human Bel7402 cells after 72 hrs MTT assay; type: functional, cell-based; details: Bel-7402, 72 h
[12] = system: H22; test: Antitumor activity against human H22 cells transplanted in ICR mouse assessed as tumor growth inhibition at 30 mg/kg, iv administered 7 days post tumor transplantation; details: 168 h, read-out: INH
[13] = system: B16; test: Antitumor activity against mouse B16 cells transplanted in ICR mouse assessed as tumor growth inhibition at 30 mg/kg, iv administered 7 days post tumor transplantation; type: functional; details: B16, 168 h
[14] = system: Mus musculus; test: Toxicity in mouse […] cells transplanted ICR mouse assessed as mouse survival at 30 mg/kg, iv administered 7 days post tumor transplantation; type: organism-based; parameters: dose 30 mg/kg, route intravenous; details: in vivo, 168 h
[15] = system: Mus musculus; test: Toxicity in mouse B6 cells transplanted ICR mouse assessed as mouse body weight at 30 mg/kg, iv administered 7 days post tumor transplantation (reference value: 18.2 +/- 0.5g); type: organism-based; parameters: dose 30 mg/kg, route intravenous; details: in vivo, 168 h

Row | SMILES | inhibition in vivo at 30 mg/kg [1] | Activity [2] | Activity [3] | IC50 [4] | inhibition in vivo at 30 mg/kg [5] | Activity [6] | IC50 [7] | IC50 [8] | IC50 [9] | Activity [10] | IC50 [11] | inhibition in vivo at 30 mg/kg [12] | inhibition in vivo at 30 mg/kg [13] | Activity [14] | Activity [15]
1 | C=C(C)[C@@H]1CC[C@]2(C(=O)O)CC[C@]3(C)[C@H](CC[C@@H]4[C@@]5(C)CC[C@H](O)[C@@](C)(CO)[C@@H]5CC[C@]43C)[C@@H]12 | 32.4% | 26.1 g | 26.7 g | 52.4 µM | 27.8% | Non-toxic | 43.4 µM | 29.9 µM | 45.1 µM | Non-toxic | 39.7 µM | – | – | – | –
2 | C=C(C)[C@@H]1CC[C@]2(C(=O)NCCN)CC[C@]3(C)[C@H](CC[C@@H]4[C@@]5(C)CCC(=O)[C@@](C)(COC(C)=O)[C@@H]5CC[C@]43C)[C@@H]12 | 62.7% | 27.2 g | 26.9 g | 10.6 µM | 51.8% | Non-toxic | 6.23 µM | 5.58 µM | 8.64 µM | Non-toxic | 7.22 µM | – | – | – | –
3 | C=C(C)[C@@H]1CC[C@]2(C(=O)O)CC[C@]3(C)[C@H](CC[C@@H]4[C@@]5(C)CCC(=O)[C@@](C)(CO)[C@@H]5CC[C@]43C)[C@@H]12 | 48.1% | 26.8 g | 27.3 g | 39.2 µM | 39.5% | Non-toxic | 29.3 µM | 20.6 µM | 36.1 µM | Non-toxic | 33.8 µM | – | – | – | –
4 | O=P1(N(CCCl)CCCl)NCCCO1 (configuration not stated) [CYCLOPHOSPHAMIDE ANHYDROUS] | – | – | – | – | – | – | – | – | – | – | – | 53.7% | – | – | –
5 | O=c1[nH]cc(F)c(=O)[nH]1 [FLUOROURACIL] | – | – | – | – | – | – | – | – | – | – | – | – | 70.3% | Non-toxic | 26.2 g
